Data set [1] in a line: Heat accelerated stability assay, 40° C., detection on 10 d and 20 d. It counts as physicochemical. Particulars: 1 mg/mL, pH about 7.4, 40° C. As for the experimental part: The derivatives (1 mg/mL) were mixed with sodium dihydrogen phosphate (1.42 mg/mL) and dissolved in ultrapure water. After adjusting pH to about 7.4 with hydrochloric acid/sodium hydroxide, the solution was filtered into a sterilized vial in a clean bench using a 0.22 μm sterile filter. The vial was then capped and placed into the stability test chamber at 40° C. Detections were made on 10d and 20d, and during the assay changes in the characteristics and properties of the polypeptides were observed and recorded. The sample was then centrifuged for 3 min at 10000 rpm at 4° C., and the supernatant was transferred to a liquid phase sample vial for detecting the concentration and purity of the polypeptides using liquid phase chromatography described as below.
Flow rate: 1.0 mL/min; Autosampler temperature: 25° C.; Column temperature: 25° C.; Detection wavelength: 214 nm; Mobile phase A: 110 mM phosphate buffer (pH 5.8): ACN=90:10; Mobile phase B: ACN: IPA: H2O=85:5:10; and Gradient of elution listed in Table 6: […]

A further data set deals with T1, human amylin receptors (Homo sapiens, UniProt O60896+P30988).
T1 construct: host or cells: CHO-K1/Ga15/AMY3 cells, further stably transfected with a CRE-luciferase plasmid
T1 sequence (P30988 25-474): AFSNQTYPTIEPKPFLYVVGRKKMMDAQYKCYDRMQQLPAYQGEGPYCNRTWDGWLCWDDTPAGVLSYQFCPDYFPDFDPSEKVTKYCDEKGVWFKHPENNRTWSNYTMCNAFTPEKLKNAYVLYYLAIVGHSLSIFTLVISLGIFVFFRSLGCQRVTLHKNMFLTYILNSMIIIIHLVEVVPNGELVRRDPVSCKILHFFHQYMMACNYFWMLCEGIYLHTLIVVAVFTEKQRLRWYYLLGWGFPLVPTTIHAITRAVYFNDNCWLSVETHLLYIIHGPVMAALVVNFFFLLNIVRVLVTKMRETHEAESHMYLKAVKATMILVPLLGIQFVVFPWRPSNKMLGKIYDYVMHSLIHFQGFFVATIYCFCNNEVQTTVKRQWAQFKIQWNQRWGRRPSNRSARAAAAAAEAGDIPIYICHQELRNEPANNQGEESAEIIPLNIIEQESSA
T1 sequence (O60896 24-148 partner): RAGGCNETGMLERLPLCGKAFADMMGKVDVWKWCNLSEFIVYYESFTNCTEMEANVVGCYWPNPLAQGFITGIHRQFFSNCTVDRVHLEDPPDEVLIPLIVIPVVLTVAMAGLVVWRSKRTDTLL
The data set can be described thus: Luciferase assay in stably transfected amylin receptor/CRE-luc CHO cell line. The data set is classed as cell-based. Particulars: for Relative activity: EC50 ratio of Cagrilintide to the compound, Cagrilintide 100%; for EC50: amylin receptor/CRE-luc CHO cells, 24 hours incubation, luminescence.

In data set [2] the target is T2, human amylin receptor on CHO-K1/Ga15/AMY3 cells (amylin receptor/CRE-luc cell line) (human) (UniProt P30988).
T2 sequence (looked up) 1: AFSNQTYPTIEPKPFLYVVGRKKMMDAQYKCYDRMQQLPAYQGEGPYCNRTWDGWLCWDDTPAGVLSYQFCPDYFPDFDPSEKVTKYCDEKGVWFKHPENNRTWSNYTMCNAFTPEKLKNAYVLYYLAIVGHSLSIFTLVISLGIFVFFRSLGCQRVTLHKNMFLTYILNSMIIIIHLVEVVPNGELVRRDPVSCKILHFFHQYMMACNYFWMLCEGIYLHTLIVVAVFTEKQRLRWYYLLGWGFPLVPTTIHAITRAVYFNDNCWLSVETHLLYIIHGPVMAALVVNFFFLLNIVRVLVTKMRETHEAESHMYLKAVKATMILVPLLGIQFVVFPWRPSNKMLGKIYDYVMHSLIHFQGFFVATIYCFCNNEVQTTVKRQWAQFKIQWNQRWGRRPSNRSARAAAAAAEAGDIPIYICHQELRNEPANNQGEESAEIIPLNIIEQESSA
T2 sequence (looked up) 2: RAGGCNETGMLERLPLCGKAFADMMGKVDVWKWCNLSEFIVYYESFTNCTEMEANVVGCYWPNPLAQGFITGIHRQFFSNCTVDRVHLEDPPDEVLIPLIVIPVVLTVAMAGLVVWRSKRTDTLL
The data set can be described thus: cell-based or functional assay.

Starred links: 1 amine or outer side, 2 acyl side, 3 side chain; linkers in the order of their positions; H or OH if unused. Non-standard residues stand in square brackets, D forms with d. Residues, ends and D or L forms follow the SMILES beside them. *: point of attachment. C20 diacid = O=C(O)CCCCCCCCCCCCCCCCCCC(=O)*; C18 diacid = O=C(O)CCCCCCCCCCCCCCCCC(=O)*; C16 diacid = O=C(O)CCCCCCCCCCCCCCC(=O)*; γGlu = O=C(O)[C@H](CCC(=O)[*:2])N[*:1]; Hyp = O=C(O)[C@@H]1C[C@@H](O)CN1

The EC50 is the concentration that produces a half-maximal response. For `CC[C@H](C)[C@H](NC(=O)[C@@H]1CCCN1C(=O)[C@H](CCCCN)NC(=O)[C@H](CC(C)C)NC(=O)[C@H](CC(N)=O)NC(=O)CNC(=O)[C@H](CO)NC(=O)[C@H](CO)NC(=O)[C@H](Cc1c[nH]cn1)NC(=O)[C@H](CCCNC(=N)N)NC(=O)[C@H](CC(C)C)NC(=O)[C@H](Cc1ccccc1)NC(=O)[C@H](CC(=O)O)NC(=O)[C@H](C)NC(=O)[C@H](CC(C)C)NC(=O)[C@H](CCCNC(=N)N)NC(=O)[C@H](CCC(N)=O)NC(=O)[C@@H](NC(=O)[C@H](C)NC(=O)[C@H](C)NC(=O)[C@@H](NC(=O)[C@H](CO)NC(=O)[C@H](CC(C)C)NC(=O)[C@H](CCC(N)=O)NC(=O)[C@H](CO)NC(=O)[C@H](C)NC(=O)CC[C@H](NC(=O)CCCCCCCCCCCCCCCCCCC(=O)O)C(=O)O)[C@@H](C)O)[C@@H](C)O)C(=O)N[C@@H](CC(C)C)C(=O)N1CCC[C@H]1C(=O)N1CCC[C@H]1C(=O)N[C@H](C(=O)N[C@@H](CC(N)=O)C(=O)N[C@H](C(=O)NCC(=O)N[C@@H](CO)C(=O)N[C@@H](CC(N)=O)C(=O)N[C@H](C(=O)N1C[C@H](O)C[C@H]1C(N)=O)[C@@H](C)O)C(C)C)[C@@H](C)O` [M51] ({C20 diacid-γGlu}-ASQLSTAATQRLADFLRHSSGNLKPILPPTNVGSNT[Hyp]-NH2), in data set [1], the “Reduction in purity, 10 d” value worked out at 23.4% and the “Reduction in purity, 20 d” value was 35.42%. In addition, on human amylin receptors, the Relative activity is 163% and the EC50 is 0.08 nM.

As for `CC[C@H](C)[C@H](NC(=O)[C@@H]1CCCN1C(=O)[C@H](CCCCN)NC(=O)[C@H](CC(C)C)NC(=O)[C@H](CC(N)=O)NC(=O)[C@@H](NC(=O)[C@H](CO)NC(=O)[C@H](CO)NC(=O)[C@H](Cc1c[nH]cn1)NC(=O)[C@H](CCCNC(=N)N)NC(=O)[C@H](CC(C)C)NC(=O)[C@H](Cc1ccccc1)NC(=O)[C@H](CC(=O)O)NC(=O)[C@H](C)NC(=O)[C@H](CC(C)C)NC(=O)[C@H](CCCNC(=N)N)NC(=O)[C@H](CCC(N)=O)NC(=O)[C@@H](NC(=O)[C@H](C)NC(=O)[C@H](C)NC(=O)[C@@H](NC(=O)[C@H](CO)NC(=O)[C@H](CC(C)C)NC(=O)[C@H](CCC(N)=O)NC(=O)[C@H](CO)NC(=O)[C@H](C)NC(=O)CC[C@H](NC(=O)CCCCCCCCCCCCCCCCCCC(=O)O)C(=O)O)[C@@H](C)O)[C@@H](C)O)[C@@H](C)O)C(=O)N[C@@H](CC(C)C)C(=O)N1CCC[C@H]1C(=O)N1CCC[C@H]1C(=O)N[C@H](C(=O)N[C@@H](CC(N)=O)C(=O)N[C@H](C(=O)NCC(=O)N[C@@H](CO)C(=O)N[C@@H](CC(N)=O)C(=O)N[C@H](C(=O)N1C[C@H](O)C[C@H]1C(N)=O)[C@@H](C)O)C(C)C)[C@@H](C)O` [M49] ({C20 diacid-γGlu}-ASQLSTAATQRLADFLRHSSTNLKPILPPTNVGSNT[Hyp]-NH2), in data set [1], the “Reduction in purity, 10 d” value stood at 8.5%. For the same molecule, at human amylin receptors, the Relative activity was found to be 163% and the 50% effective concentration (EC50) worked out at 0.08 nM.

Regarding `CC[C@H](C)[C@H](NC(=O)[C@@H]1CCCN1C(=O)[C@H](CCCCN)NC(=O)[C@H](CC(C)C)NC(=O)[C@H](CC(N)=O)NC(=O)[C@H](CCCNC(=N)N)NC(=O)[C@H](CO)NC(=O)[C@H](CO)NC(=O)[C@H](Cc1c[nH]cn1)NC(=O)[C@H](CCCNC(=N)N)NC(=O)[C@H](CC(C)C)NC(=O)[C@H](Cc1ccccc1)NC(=O)[C@H](CC(=O)O)NC(=O)[C@H](C)NC(=O)[C@H](CC(C)C)NC(=O)[C@H](CCCNC(=N)N)NC(=O)[C@H](CCC(N)=O)NC(=O)[C@@H](NC(=O)[C@H](C)NC(=O)[C@H](C)NC(=O)[C@@H](NC(=O)[C@H](CO)NC(=O)[C@H](CC(C)C)NC(=O)[C@H](CCC(N)=O)NC(=O)[C@H](CO)NC(=O)[C@H](C)NC(=O)CC[C@H](NC(=O)CCCCCCCCCCCCCCCCCCC(=O)O)C(=O)O)[C@@H](C)O)[C@@H](C)O)C(=O)N[C@@H](CC(C)C)C(=O)N1CCC[C@H]1C(=O)N1CCC[C@H]1C(=O)N[C@H](C(=O)N[C@@H](CC(N)=O)C(=O)N[C@H](C(=O)NCC(=O)N[C@@H](CO)C(=O)N[C@@H](CC(N)=O)C(=O)N[C@H](C(=O)N1C[C@H](O)C[C@H]1C(N)=O)[C@@H](C)O)C(C)C)[C@@H](C)O` [M54] ({C20 diacid-γGlu}-ASQLSTAATQRLADFLRHSSRNLKPILPPTNVGSNT[Hyp]-NH2), in data set [1], the “Reduction in purity, 10 d” value is on record as 11.67% and the “Reduction in purity, 20 d” value worked out at 20.56%. For the same molecule, at human amylin receptors, the Relative activity came out at 267% and the EC50 came out at 0.06 nM.

B1: M37 (peptide)
peptide: {C18 diacid-γGlu}-ASQLSTAATQRLADFLRHSSNNLKPILPPTNVGSNT[Hyp]-NH2
SMILES: CC[C@H](C)[C@H](NC(=O)[C@@H]1CCCN1C(=O)[C@H](CCCCN)NC(=O)[C@H](CC(C)C)NC(=O)[C@H](CC(N)=O)NC(=O)[C@H](CC(N)=O)NC(=O)[C@H](CO)NC(=O)[C@H](CO)NC(=O)[C@H](Cc1c[nH]cn1)NC(=O)[C@H](CCCNC(=N)N)NC(=O)[C@H](CC(C)C)NC(=O)[C@H](Cc1ccccc1)NC(=O)[C@H](CC(=O)O)NC(=O)[C@H](C)NC(=O)[C@H](CC(C)C)NC(=O)[C@H](CCCNC(=N)N)NC(=O)[C@H](CCC(N)=O)NC(=O)[C@@H](NC(=O)[C@H](C)NC(=O)[C@H](C)NC(=O)[C@@H](NC(=O)[C@H](CO)NC(=O)[C@H](CC(C)C)NC(=O)[C@H](CCC(N)=O)NC(=O)[C@H](CO)NC(=O)[C@H](C)NC(=O)CC[C@H](NC(=O)CCCCCCCCCCCCCCCCC(=O)O)C(=O)O)[C@@H](C)O)[C@@H](C)O)C(=O)N[C@@H](CC(C)C)C(=O)N1CCC[C@H]1C(=O)N1CCC[C@H]1C(=O)N[C@H](C(=O)N[C@@H](CC(N)=O)C(=O)N[C@H](C(=O)NCC(=O)N[C@@H](CO)C(=O)N[C@@H](CC(N)=O)C(=O)N[C@H](C(=O)N1C[C@H](O)C[C@H]1C(N)=O)[C@@H](C)O)C(C)C)[C@@H](C)O
Turning to B1, in data set [2], the EC50 (luciferase assay, amylin receptor/CRE-luc CHO cells) was found to be 0.03 nM and the Relative activity (the EC50 ratio of Cagrilintide to the compound) amounted to 184%.

B2: M38 (peptide)
peptide: {C16 diacid-γGlu}-ASQLSTAATQRLADFLRHSSNNLKPILPPTNVGSNT[Hyp]-NH2
SMILES: CC[C@H](C)[C@H](NC(=O)[C@@H]1CCCN1C(=O)[C@H](CCCCN)NC(=O)[C@H](CC(C)C)NC(=O)[C@H](CC(N)=O)NC(=O)[C@H](CC(N)=O)NC(=O)[C@H](CO)NC(=O)[C@H](CO)NC(=O)[C@H](Cc1c[nH]cn1)NC(=O)[C@H](CCCNC(=N)N)NC(=O)[C@H](CC(C)C)NC(=O)[C@H](Cc1ccccc1)NC(=O)[C@H](CC(=O)O)NC(=O)[C@H](C)NC(=O)[C@H](CC(C)C)NC(=O)[C@H](CCCNC(=N)N)NC(=O)[C@H](CCC(N)=O)NC(=O)[C@@H](NC(=O)[C@H](C)NC(=O)[C@H](C)NC(=O)[C@@H](NC(=O)[C@H](CO)NC(=O)[C@H](CC(C)C)NC(=O)[C@H](CCC(N)=O)NC(=O)[C@H](CO)NC(=O)[C@H](C)NC(=O)CC[C@H](NC(=O)CCCCCCCCCCCCCCC(=O)O)C(=O)O)[C@@H](C)O)[C@@H](C)O)C(=O)N[C@@H](CC(C)C)C(=O)N1CCC[C@H]1C(=O)N1CCC[C@H]1C(=O)N[C@H](C(=O)N[C@@H](CC(N)=O)C(=O)N[C@H](C(=O)NCC(=O)N[C@@H](CO)C(=O)N[C@@H](CC(N)=O)C(=O)N[C@H](C(=O)N1C[C@H](O)C[C@H]1C(N)=O)[C@@H](C)O)C(C)C)[C@@H](C)O
Regarding B2, in data set [2], the EC50 (luciferase assay, amylin receptor/CRE-luc CHO cells) was determined as 0.03 nM and the Relative activity (the EC50 ratio of Cagrilintide to the compound) was found to be 181%.

The record behind these values is patent US20260265329A1, “POLYPEPTIDE AND DERIVATIVE THEREOF, COMPOSITION, AND USE THEREOF” (HANGZHOU SCIWIND BIOSCIENCES CO., LTD., priority 2023, published 2026).
